Assay results published in article PMC10877564, “Activity of Gut-Derived Nisin-like Lantibiotics against Human Gut Pathogens and Commensals” (ACS Chemical Biology, 2024).
Positions of bridges follow the written chain, without caps; N, C: chain ends. Non-standard residues stand in square brackets, D forms with d. No end group written: not given here. Abu = CC[C@H](N)C(=O)O; Dhb = C/C=C(\N)C(=O)O; Dha = C=C(N)C(=O)O

Assays:
[1] = tested on: panel of Gram-positive human pathogens (VRE, MRSA, MRSE, L. monocytogenes, C. difficile); assay: MIC assay against the panel of Gram-positive human pathogens; format: cell-based; conditions: pathogen panel, Figure 3A-E; anaerobic
Source text: (§1) Next, we set out to test the antimicrobial activities of these purified lantibiotics against a panel of Gram-positive bacteria that are representatives of some of the most prevalent human pathogens: VRE, Methicillin-resistant S. aureus USA300 (MRSA), Methicillin-resistant Staphylococcus epidermidis SK135 (MRSE), Listeria monocytogenes 10403S, and Clostridioides difficile VPI10463. We examined the growth of bacteria in a 96-well plate under a concentration gradient of lantibiotics under anaerobic conditions (Figure S2B).
Elution Buffer (4 M guanidine hydrochloride, 20 mM Tris HCl, pH 7.5 at 25 °C, 100 mM NaCl, 1 M imidazole). Peptides eluted from the Ni resin were concentrated and desalted using 3 kDa Amicon filters (Millipore). For leader peptide removal, the peptide (1:20 trypsin to peptide) was incubated with the trypsin protease in 50 mM Tris-HCl, pH 8 overnight at 37 °C. Lastly, the core peptides were further purified with HPLC using an Agilent 1200 instrument (Agilent) as specified in general methods. About 1.5 mg recombinant peptide was obtained after HPLC purification per […]
Purification of blauticin from Blautia producta SCSK
Stationary anaerobic culture of BPSCSK was inoculated 1:100 to 1 L BHIS. Culture was incubated on a heating plate at 37 °C with 220 rpm stirring for 2 days in an anaerobic chamber. Bacteria were pelleted with 15,000 x g centrifugation for 15 min. The supernatant was acidified with acetic acid to pH 5.5 and filtered through a 0.22 um filter. Filtered supernatant was loaded onto a HiTrap SP HP column using an AKTA Pure FPLC, which was eluted sequentially with 3 CV of distilled water, 200 mM NaCl, 400 mM NaCl, 600 mM NaCl, 800 mM NaCl, and 1 M NaCl. The 800 mM NaCl eluate was concentrated with a 3 kDa Amicon filter, followed by dialyzation with DPBS using a 3 kDa Amicon filter. Purification of blauticin was confirmed by SDS-PAGE, VRE inhibition in vitro assay, and MALDI-TOF MS. […]
(§2) For broth cultures, isolates were grown in pre-reduced BHI supplemented with 5 g/L yeast extract (Difco, BD) and 0.1% L-cysteine under anaerobic condition.
(§3) Minimal Inhibition Concentration (MIC) assay
(§4) All MIC assays were performed under anaerobic condition. Stationary bacterial culture in BHIS (BHI supplemented with 5 g/L yeast extract and 0.1% L-cysteine) were inoculated 1:100 to wells containing 200 µL BHIS in U-bottom 96-well plates. Lantibiotics were dissolved in DPBS, and concentrations were determined by BCA assay (Pierce) according to the manufacturer’s protocol.
(§5) Lantibiotic stock solutions were added to wells to reach desired final concentration, with 3-fold serial dilution across rows to create concentration gradients. Bacteria-inoculated wells without lantibiotics served as control. […]

B. luti MSK.20.18 = assay: MIC assay, anaerobic broth dilution; format: cell-based, Blautia luti; conditions: BHIS, 37 °C, 48 h, 3-fold serial dilution
Source text: (§6) Antibiotic treatment may result in collateral damage to commensal bacteria in the human microbiome, leading to dysbiosis and susceptibility to various diseases.[44] How lantibiotics impact Gram-positive commensals from the human gut has remained unclear. Therefore, we performed antimicrobial activity tests of these lantibiotics against selected Gram-positive human gut commensals, most of which belong to the Lachnospiraceae family, one of the most abundant bacterial families in the human gut.[27] In general, human gut commensals were more susceptible to the set of investigated lantibiotics compared to pathogens (Figure 3). […]
(§7) Isolation of human gut commensal bacteria
(§8) Isolation and growth of commensal bacteria was done as previously reported.5 Briefly, fresh donor fecal samples were transferred into an anaerobic chamber (Coy Labs) within 1 h of collection. The anaerobic chamber was maintained using a gas mix consisting of 5% hydrogen, 5% carbon dioxide and 90% nitrogen, and hydrogen was maintained at ~3.0% using an anaerobic gas infuser. […]
(§9) All MIC assays were performed under anaerobic condition. […] Lantibiotics were dissolved in DPBS, and concentrations were determined by BCA assay (Pierce) according to the manufacturer’s protocol. […]

[2] = tested on: E. faecium ATCC700221 (VRE); assay: MIC assay, anaerobic broth dilution; format: cell-based, Enterococcus faecium; conditions: BHIS, 37 °C, 48 h, 3-fold serial dilution
Source text: as §1, with “S2B). […]” for “S2B).”
as §2, §3, §4, §5

A. hadrus MSK.14.23 = assay: MIC assay, anaerobic broth dilution; format: cell-based, Anaerostipes hadrus; conditions: BHIS, 37 °C, 48 h, 3-fold serial dilution
Source text: as §6, §7, §8, §9

C. comes MSK.11.23 = assay: MIC assay, anaerobic broth dilution; format: cell-based, Coprococcus comes
Source text: as §6, §7
Isolation and growth of commensal bacteria was done as previously reported.5 Briefly, fresh donor fecal samples were transferred into an anaerobic chamber (Coy Labs) within 1 h of collection. The anaerobic chamber was maintained using a gas mix consisting of 5% hydrogen, 5% carbon dioxide and 90% nitrogen, and hydrogen was maintained at ~3.0% using an anaerobic gas infuser. Fecal samples were resuspended in pre-reduced PBS and plated on Columbia blood agar or brain-heart infusion (BHI – Difco, BD) agar plates in three serial 10-fold dilutions and incubated at 37 °C for 48 – 96 h. Isolated colonies were re-streaked for purity onto Columbia blood agar and frozen in pre-reduced 10% glycerol in PBS.
as §2, §3, §4
Lantibiotic stock solutions were added to wells to reach desired final concentration, with 3-fold serial dilution across rows to create concentration gradients. Bacteria-inoculated wells without lantibiotics served as control. Plates were incubated at 37 °C for 48 h before being taken out of the anaerobic chamber for centrifugation. Plates were imaged with an iBright 1500 imager […]
pellets than those without lantibiotics were identified as MIC.

L. monocytogenes 10403s = assay: MIC assay, anaerobic broth dilution; format: cell-based, Listeria monocytogenes; conditions: BHIS, 37 °C, 48 h, 3-fold serial dilution
Source text: as §1, with “S2B). […]” for “S2B).”
as §2, §3, §4, §5

**Q.** What does the source list for “nisin A (I[Dhb]AI[Dha]LC[Abu]PGCK[Abu]GALMGCNMK[Abu]A[Abu]CHCSIHV[Dha]K; thioether 8-11, 13-19, 23-26, 25-28, 3-7; UniProt P13068 24-57, looked up) [prototypical class I lantibiotic produced by L. lactis, food preservative; commercial nisin A]”?
**A.** inhibitory activity against pathogens based on MIC (ranking in words) [1]: strongest inhibitory activities; nisin A MIC (B. luti MSK.20.18): 0.0329 µM; nisin A MIC [2]: 1.48 µM; nisin A MIC (A. hadrus MSK.14.23): 0.0110 µM; nisin A MIC (C. comes MSK.11.23; C. comes MSK.11.23, anaerobic, BHIS, 37 °C, 48 h, 3-fold serial dilution): 0.296 µM; sensitivity of C. comes MSK.11.23 to the lantibiotic (in words) (C. comes MSK.11.23; Figure 3, anaerobic MIC assay): relatively resistant; nisin A MIC (L. monocytogenes 10403s): 2.67 µM
